One experiment relates to Tyr mice. Briefly: Developmental milestone assessment of Tyr mouse pups. It is filed as in vivo. Also on record: key to NAP efficacy: global developmental delays: corrections by NAP treatment (+). On the procedure: Animals—Animals were housed under a 12-hour light/dark cycle, with food and water ad-libitum. Mouse pups were subcutaneously administrated with NAP [having an amino acid sequence NAPVSIPQ (SEQ ID NO: 2), 25 μg NAP/1 ml saline] as described (8, 12). At 21 days of age mice were administered daily intranasal NAP in vehicle solution (“DD”—7.5 mg/ml of NaCl, 1.7 mg/ml of citric acid, 3 mg/ml of disodium phosphate dihydrate, and 0.2 mg/ml of 50% benzalkonium chloride solution) (0.5 μg NAP/5p1 DD) (8, 9, 12, and U.S. Pat. No. 10,912,819 to Gozes). These mice continued to behavioral analysis as described hereinbelow. The noninvasive intranasal route was chosen as these experiments required daily handling and administration. Age (weeks) of mice during behavioral experiments (mean±SEM) was as follows: Catwalk-9.23±0.15, grooming-10±0.15, social approach-10.5±0.12, odor-discrimination-12.12±0.13, hanging-wire-13±0.14, hotplate-13.18±0.13. Group size was determined following previous experiments (12). Pups were randomly allocated to either the NAP or DD group according to sex and genotype. All procedures involving animals were conducted under the supervision and approval of the institutional animal care and use committee of Tel Aviv University and the Israeli Ministry of Health.
Developmental milestone assessment and fostering—This experiment included animals from 16 litters in 2 experimental batches. It was performed as previously described (12) with slight modifications. Experimenters were blinded to sex and genotype during experimental procedures. Sexes were grouped if no statistically significant sex differences were discovered.
Developmental milestone assessment: At p1 Tyr pups were tattooed and genotyped for the presence of the Tyr718 mutation and SRY as described above. The same day pups were randomized to either NAP or Saline treatment groups according to genotype and sex results and developmental milestone assessment was performed from p1 to p21. As animal randomization ended up with unequal male/female ratios for certain groups and no statistical differences were found between the sexes in any of the 4 treatment groups (T test), the sexes could not be separated, [That is except for eye opening, where a significant difference was observed between the sexes in the Tyr group (P=0.047, no significance in the other three treatment groups)]. Pup paws were tattooed using a 31-gauge needle and tattoo ink (Ketchum Manufacturing Co., catalog 329AA) for identification on P1 and, until P21, underwent daily measurements for length and weight and observation for eye opening. Pups were injected daily with NAP, 1 hour prior to the tests as previously described^1.
Briefly, for ear twitch reflex, a cotton tip was gently brushed against the tip of the ear three times, between postnatal days 7-15 or until the pup responded correctly for two consecutive days. For air righting reflex, the pup was held up-side down and released ˜10.5 cm above the cage, containing 5 cm of shavings. The test was performed between postnatal days 8-21 or until the pup landed on the shavings with all four paws, for two consecutive days. For surface righting reflex, pups were placed on their backs on a level surface, the test was performed between postnatal days 1-13 until the pups was able to right itself with all four paws on the surface in under a second for two consecutive days. For eye opening, mice were observed daily until both eyes were open (eyelids separated completely). For auditory startle, the pup was placed on a level surface and the experimenter clapped loudly twice until a visible startle response was evident for 2 consecutive days. The test was performed between days 7-18. For cliff aversion, pups were placed on the edge of a small box (approx. 4 cm in height) with both paws protruding over the edge of the box. Pups were allowed 30 sec to avoid the cliff and move themselves backwards. […]

Another experiment deals with male Tyr mice. In words: Visual evoked potentials (VEP). It is filed as in vivo, mouse. Also on record: key to NAP efficacy: visual evoked potential: corrections by NAP treatment (+). Here is the method: VEP—5.72±0.52-week-old male mice were used for VEP measurements. Animals were treated for 3 days with 0.1 ml S.C saline, recorded, and then followed by 4 daily S.C doses of either 1 μg NAP (in 0.1 ml saline) or 0.1 ml saline followed by another VEP recording.

The subject of a further experiment is SHANK3 mice. In words: Grooming (repetitive behavior). It is filed as in vivo, mouse. The settings on record: sham-treated vs NAP-treated SHANK3 mice; data not shown. Here is the method: Repetitive behavior, a key autistic feature, was also evaluated by measuring grooming frequency and duration.
[1] abbreviates: Tyr mouse, first symbol of cell.

Consider `CC[C@H](C)[C@H](NC(=O)[C@H](CO)NC(=O)[C@@H](NC(=O)[C@@H]1CCCN1C(=O)[C@H](C)NC(=O)[C@@H](N)CC(N)=O)C(C)C)C(=O)N1CCC[C@H]1C(=O)N[C@@H](CCC(N)=O)C(=O)O` [NAP, NAPVSIPQ], for which the Rooting reflex entry with Tyr mice (Tyr mice, data not shown) is reported as “induced rooting”. Moreover, the “NAP efficacy: global developmental delays” value with Tyr mice (setting [1]) was “+/+”. In addition, the “Surface-righting, first day of acquisition” value in the experiment on Tyr mice (Tyr pups, daily s.c. NAP, WT 8.69±0.42, Tyr 10.14±0.36, mean±SEM) was 8.81±0.33. For the same molecule, the “Air-righting, first day of acquisition” value with Tyr mice (Tyr pups, daily s.c. NAP, WT 12.96±0.28, Tyr 15.29±0.15, mean±SEM) turned out to be 14.63±0.38. In addition, the Body weight result was “no effect” in the experiment on Tyr mice (WT female mice, data not shown); “beneficial effect was visible from P10 and reached significance at P20-21” with Tyr mice (female Tyr pups, P1-P21). Further, the Eye opening result is recorded as “no NAP effect” in the experiment on Tyr mice (WT females, data not shown) and “No genotype/NAP effect” with Tyr mice (males, data not shown). Further, the “Developmental milestones in WT littermates” value in the experiment with Tyr mice (WT littermates, data not shown) is “no effect on WT littermates except for the cliff aversion response”. For the same molecule, in the experiment with Tyr mice (female Tyr pups, Tyr 16±0.37, WT 14.93±0.43), the “Eye opening (day)” value was 14.78±0.46. The “NAP efficacy: visual evoked potential” value with male Tyr mice (setting [1]) is reported as “+/+”. Moreover, in the experiment with male Tyr mice (male Tyr mice, 4 consecutive daily doses), the VEP traces result is reported as “normalizing these effects”. For the same molecule, the “Decrease of VEP P2 AUC” value in the experiment with male Tyr mice (male Tyr mice, 4 daily s.c. doses of 1 μg NAP, 100, 300 and 3000 mcd) is listed as 1.6-2.3 fold. Also, in the experiment on male Tyr mice (male Tyr mice, 100, 300 and 3000 mcd), the “VEP N2 AUC” value is given as “same significant change”. Also, the “VEP P3 AUC” value in the experiment on male Tyr mice (male Tyr mice, 300 and 3000 mcd) is “significant NAP effect”. The Grooming frequency entry with SHANK3 mice is “higher grooming frequency than did NAP-treated SHANK3 mice”.

The values are drawn from patent publication US20250032580A1, “USE OF ADNF POLYPEPTIDES IN THERAPY” (RAMOT AT TEL-AVIV UNIVERSITY LTD., priority 2021, published 2025).
